# In ChEMBL document CHEMBL1208738, “Optimization of privileged structures for selective and potent melanocortin subtype-4 receptor ligands” (Bioorg Med Chem Lett, 2010):
# Legend:
# Melanocortin receptor 4 [1] = target: T1, Melanocortin receptor 4 (Homo sapiens, UniProt P32245); assay: Displacement of [125I]NDP-alpha-MSH from human MC4 receptor expressed in CHO cells; format: cell-based
# Melanocortin receptor 4 [2] = target: T1, Melanocortin receptor 4; assay: Agonist activity at human MC4 receptor expressed in CHO cells assessed as increase of alpha-MSH-induced cAMP accumulation; format: functional, cell-based
# Melanocortin receptor 4 [3] = target: T1, Melanocortin receptor 4; assay: Agonist activity at human MC4 receptor expressed in CHO cells assessed as increase of alpha-MSH-induced cAMP accumulation at 10 uM relative to alpha-MSH; format: functional, cell-based
# Melanocortin receptor 3 [4] = target: T2, Melanocortin receptor 3 (Homo sapiens, UniProt P41968); assay: Agonist activity at human MC3 receptor expressed in CHO cells assessed as increase of alpha-MSH-induced cAMP accumulation; format: functional, cell-based
# T2 sequence (P41968 whole entry): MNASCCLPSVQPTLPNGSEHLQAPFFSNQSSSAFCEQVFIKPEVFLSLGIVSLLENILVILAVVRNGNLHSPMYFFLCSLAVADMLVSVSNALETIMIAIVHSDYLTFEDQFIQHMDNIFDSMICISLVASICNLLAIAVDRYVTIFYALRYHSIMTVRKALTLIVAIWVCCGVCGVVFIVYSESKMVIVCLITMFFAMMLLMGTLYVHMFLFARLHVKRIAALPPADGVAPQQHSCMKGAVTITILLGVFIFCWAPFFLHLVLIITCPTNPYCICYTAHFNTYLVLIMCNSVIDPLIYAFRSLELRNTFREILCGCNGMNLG
# Melanocortin receptor 5 [5] = target: T3, Melanocortin receptor 5 (Homo sapiens, UniProt P33032); assay: Displacement of [125I]NDP-alpha-MSH from human MC5 receptor expressed in CHO cells; format: cell-based
# T3 sequence (P33032 whole entry): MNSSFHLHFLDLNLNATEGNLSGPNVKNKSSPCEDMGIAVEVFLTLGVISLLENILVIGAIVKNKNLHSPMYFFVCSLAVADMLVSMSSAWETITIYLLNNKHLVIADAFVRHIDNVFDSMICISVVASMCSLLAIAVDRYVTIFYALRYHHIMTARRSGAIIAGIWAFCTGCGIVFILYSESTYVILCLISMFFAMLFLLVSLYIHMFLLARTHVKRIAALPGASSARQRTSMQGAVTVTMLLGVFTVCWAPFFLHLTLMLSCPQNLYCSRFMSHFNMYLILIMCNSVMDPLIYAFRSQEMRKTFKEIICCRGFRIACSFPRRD
# Melanocortin receptor 5 [6] = target: T3, Melanocortin receptor 5; assay: Agonist activity at human MC5 receptor expressed in CHO cells assessed as increase of alpha-MSH-induced cAMP accumulation; format: functional, cell-based
# [7] = target: T4, Melanocyte-stimulating hormone receptor (Homo sapiens, UniProt Q01726); assay: Displacement of [125I]NDP-alpha-MSH from human MC1 receptor expressed in CHO cells; format: cell-based
# Target sequence in this assay (Q01726 whole entry): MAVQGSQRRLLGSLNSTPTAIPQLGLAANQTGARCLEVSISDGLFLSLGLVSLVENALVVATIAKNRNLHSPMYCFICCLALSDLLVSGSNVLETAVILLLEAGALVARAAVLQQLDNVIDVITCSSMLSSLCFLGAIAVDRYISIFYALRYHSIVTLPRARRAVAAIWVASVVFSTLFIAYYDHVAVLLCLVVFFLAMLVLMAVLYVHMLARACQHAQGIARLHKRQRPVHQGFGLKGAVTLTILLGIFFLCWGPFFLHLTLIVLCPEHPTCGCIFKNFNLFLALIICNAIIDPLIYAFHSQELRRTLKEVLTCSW
# [8] = target: T4, Melanocyte-stimulating hormone receptor; assay: Agonist activity at human MC1 receptor expressed in CHO cells assessed as increase of alpha-MSH-induced cAMP accumulation; format: functional, cell-based
# Target sequence in this assay (Q01726 whole entry): as above
# Melanocortin receptor 3 [9] = target: T2, Melanocortin receptor 3; assay: Displacement of [125I]NDP-alpha-MSH from human MC3 receptor expressed in CHO cells; format: cell-based
# Melanocortin receptor 3 [10] = target: T2, Melanocortin receptor 3; assay: Agonist activity at human MC3 receptor expressed in CHO cells assessed as increase of alpha-MSH-induced cAMP accumulation at 10 uM relative to alpha-MSH; format: functional, cell-based
# Melanocortin receptor 5 [11] = target: T3, Melanocortin receptor 5; assay: Agonist activity at human MC5 receptor expressed in CHO cells assessed as increase of alpha-MSH-induced cAMP accumulation at 10 uM relative to alpha-MSH; format: functional, cell-based
# [12] = target: T4, Melanocyte-stimulating hormone receptor; assay: Agonist activity at human MC1 receptor expressed in CHO cells assessed as increase of alpha-MSH-induced cAMP accumulation at 10 uM relative to alpha-MSH; format: functional, cell-based
# Target sequence in this assay (Q01726 whole entry, looked up): as the sequence (Q01726 whole entry) above
# T1 sequence (P32245 whole entry): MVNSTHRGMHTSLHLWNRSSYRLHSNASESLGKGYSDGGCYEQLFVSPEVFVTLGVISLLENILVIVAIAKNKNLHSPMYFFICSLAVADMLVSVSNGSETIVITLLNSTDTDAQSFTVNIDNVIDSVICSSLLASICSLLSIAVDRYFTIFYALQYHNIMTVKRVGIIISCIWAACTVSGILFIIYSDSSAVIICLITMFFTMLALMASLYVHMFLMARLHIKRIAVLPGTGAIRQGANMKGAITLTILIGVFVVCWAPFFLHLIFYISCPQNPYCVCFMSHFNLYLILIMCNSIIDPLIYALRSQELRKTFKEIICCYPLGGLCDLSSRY
Structure (SMILES),IC50 (Melanocortin receptor 4 [1]),EC50 (Melanocortin receptor 4 [2]),Activity (Melanocortin receptor 4 [3]),other results
"CC(C)CC(CN(C(C)C)S(C)(=O)=O)N1CCN(C(=O)[C@@H]2CN(C(C)(C)C)C[C@H]2c2ccc(F)cc2F)CC1 (single isomer, unassigned; diastereomer 1) [listing 1 of 2 here]",88 nM,47 nM,–,–
"CC(=O)N(CC(N1CCN(C(=O)[C@@H]2CN(C(C)(C)C)C[C@H]2c2ccc(F)cc2F)CC1)C(C)(C)C)C(C)C (single isomer, unassigned; diastereomer 2) [listing 1 of 2 here]",–,–,94%,–
"CC(=O)N(CC(N1CCN(C(=O)[C@@H]2CN(C(C)(C)C)C[C@H]2c2ccc(F)cc2F)CC1)C(C)(C)C)C(C)C (single isomer, unassigned; diastereomer 1) [listing 1 of 2 here]",–,–,–,IC50 (Melanocortin receptor 4 [1]; cho): 150 nM; EC50 (Melanocortin receptor 4 [2]; cho): 180 nM
"CC(=O)N(CC(N1CCN(C(=O)[C@@H]2CN(C(C)(C)C)C[C@H]2c2ccc(F)cc2F)CC1)C(C)(C)C)C(C)C (single isomer, unassigned; diastereomer 2) [listing 2 of 2 here]",150 nM,180 nM,–,–
"CC(C)CC(CN(C(C)C)S(C)(=O)=O)N1CCN(C(=O)[C@@H]2CN(C(C)(C)C)C[C@H]2c2ccc(F)cc2F)CC1 (single isomer, unassigned; diastereomer 1) [listing 2 of 2 here]",–,–,117%,–
"CC(=O)N(CC(CC(C)C)N1CCN(C(=O)[C@@H]2CN(C(C)(C)C)C[C@H]2c2ccc(F)cc2F)CC1)C(C)C (single isomer, unassigned; diastereomer 1) [listing 1 of 2 here]",–,–,101%,–
"CC(C)N(CC(C1CCCCC1)N1CCN(C(=O)[C@@H]2CN(C(C)(C)C)C[C@H]2c2ccc(F)cc2F)CC1)C(=O)c1cnn(C(C)C)c1 (single isomer, unassigned; diastereomer 1)",18 nM,6.4 nM,–,EC50 (Melanocortin receptor 3 [4]): 79 nM; IC50 (Melanocortin receptor 5 [5]): 620 nM; EC50 (Melanocortin receptor 5 [6]): 1000 nM; IC50 [7]: 730 nM; EC50 [8]: 520 nM; IC50 (Melanocortin receptor 3 [9]): 870 nM
"CC(=O)N(CC(CC(C)C)N1CCN(C(=O)[C@@H]2CN(C(C)(C)C)C[C@H]2c2ccc(F)cc2F)CC1)C(C)C (single isomer, unassigned; diastereomer 1) [listing 2 of 2 here]",49 nM,29 nM,–,–
"CC(=O)N(CC(N1CCN(C(=O)[C@@H]2CN(C(C)(C)C)C[C@H]2c2ccc(F)cc2F)CC1)C(C)(C)C)C(C)C (single isomer, unassigned; diastereomer 1) [listing 2 of 2 here]",–,–,89%,–
"CC(=O)N(CC(CC(C)C)N1CCN(C(=O)[C@@H]2CN(C(C)(C)C)C[C@H]2c2ccc(F)cc2F)CC1)C(C)C (single isomer, unassigned; diastereomer 2)",23 nM,9.7 nM,–,EC50 (Melanocortin receptor 3 [4]): 880 nM; IC50 (Melanocortin receptor 5 [5]): 1100 nM; EC50 (Melanocortin receptor 5 [6]): > 5000 nM; IC50 [7]: 3600 nM; EC50 [8]: 560 nM; IC50 (Melanocortin receptor 3 [9]): 4700 nM
"CC(C)N(CC(C1CCCCC1)N1CCN(C(=O)[C@@H]2CN(C(C)(C)C)C[C@H]2c2ccc(F)cc2F)CC1)C(=O)c1cnn(C(C)C)c1 (single isomer, unassigned; diastereomer 2) [listing 1 of 2 here]",–,–,81%,–
"CC(C)N(CC(C1CCCCC1)N1CCN(C(=O)[C@@H]2CN(C(C)(C)C)C[C@H]2c2ccc(F)cc2F)CC1)C(=O)c1cnn(C(C)C)c1 (single isomer, unassigned; diastereomer 2) [listing 2 of 2 here]",62 nM,19 nM,–,–

# Continued, in another order:
IC50 (Melanocortin receptor 4 [1]),EC50 (Melanocortin receptor 4 [2]),Activity (Melanocortin receptor 4 [3]),Structure (SMILES),other results
1900 nM,6700 nM,10%,CC(C)CN(CC(C)C)CC(C1CCCCC1)N1CCN(C(=O)[C@@H]2CN(C(C)(C)C)C[C@H]2c2ccc(F)cc2F)CC1 (stereo partly specified),–
64 nM,9.1 nM,–,"CC(C)N(CC(C1CCCCC1)N1CCN(C(=O)[C@@H]2CN(C(C)(C)C)C[C@H]2c2ccc(F)cc2F)CC1)C(=O)c1cccnn1 (single isomer, unassigned; diastereomer 2) [listing 1 of 2 here]",–
130 nM,15 nM,–,CC(C)N(CC(C1CCCCC1)N1CCN(C(=O)[C@@H]2CN(C(C)(C)C)C[C@H]2c2ccc(F)cc2F)CC1)C(=O)c1ncccn1 (stereo in doubt; 22B) [listing 1 of 2 here],–
–,–,114%,"CC(C)N(CC(C1CCCCC1)N1CCN(C(=O)[C@@H]2CN(C(C)(C)C)C[C@H]2c2ccc(F)cc2F)CC1)S(C)(=O)=O (single isomer, unassigned; diastereomer 1) [listing 1 of 2 here]",–
200 nM,710 nM,97%,CCCN(CCC)CC(C1CCCCC1)N1CCN(C(=O)[C@@H]2CN(C(C)(C)C)C[C@H]2c2ccc(F)cc2F)CC1 (stereo partly specified),–
–,–,99%,"CC(C)N(CC(C1CCCCC1)N1CCN(C(=O)[C@@H]2CN(C(C)(C)C)C[C@H]2c2ccc(F)cc2F)CC1)C(=O)c1cccnn1 (single isomer, unassigned; diastereomer 2) [listing 2 of 2 here]",–
–,–,98%,"CC(C)N(CC(C1CCCCC1)N1CCN(C(=O)[C@@H]2CN(C(C)(C)C)C[C@H]2c2ccc(F)cc2F)CC1)C(=O)c1ncccn1 (single isomer, unassigned; diastereomer 1)",–
53 nM,19 nM,–,CC(C)N(CC(N1CCN(C(=O)[C@@H]2CN(C(C)(C)C)C[C@H]2c2ccc(F)cc2F)CC1)C(C)(C)C)S(C)(=O)=O (stereo in doubt; 27A) [listing 1 of 2 here],–
46 nM,44 nM,–,CC(C)N(CC(N1CCN(C(=O)[C@@H]2CN(C(C)(C)C)C[C@H]2c2ccc(F)cc2F)CC1)C(C)(C)C)S(C)(=O)=O (stereo in doubt; 27B) [listing 1 of 2 here],–
18 nM,5.4 nM,–,"CC(C)N(CC(C1CCCCC1)N1CCN(C(=O)[C@@H]2CN(C(C)(C)C)C[C@H]2c2ccc(F)cc2F)CC1)C(=O)c1cccnn1 (single isomer, unassigned; diastereomer 1) [listing 1 of 2 here]",EC50 (Melanocortin receptor 3 [4]): 90 nM; IC50 (Melanocortin receptor 5 [5]): 130 nM; EC50 (Melanocortin receptor 5 [6]): 490 nM; IC50 [7]: 1900 nM; EC50 [8]: 1200 nM; IC50 (Melanocortin receptor 3 [9]): 770 nM
29 nM,50 nM,–,"CC(=O)N(CC(C1CCCCC1)N1CCN(C(=O)[C@@H]2CN(C(C)(C)C)C[C@H]2c2ccc(F)cc2F)CC1)C(C)C (single isomer, unassigned; diastereomer 1) [listing 1 of 2 here]",–
–,–,134%,"CC(=O)N(CC(C1CCCCC1)N1CCN(C(=O)[C@@H]2CN(C(C)(C)C)C[C@H]2c2ccc(F)cc2F)CC1)C(C)C (single isomer, unassigned; diastereomer 1) [listing 2 of 2 here]",–
310 nM,240 nM,95%,CC(C)NCC(C1CCCCC1)N1CCN(C(=O)[C@@H]2CN(C(C)(C)C)C[C@H]2c2ccc(F)cc2F)CC1 (stereo partly specified),–
–,–,88%,CC(C)N(CC(N1CCN(C(=O)[C@@H]2CN(C(C)(C)C)C[C@H]2c2ccc(F)cc2F)CC1)C(C)(C)C)S(C)(=O)=O (stereo in doubt; 27A) [listing 2 of 2 here],–
15 nM,25 nM,–,"CC(C)N(CC(C1CCCCC1)N1CCN(C(=O)[C@@H]2CN(C(C)(C)C)C[C@H]2c2ccc(F)cc2F)CC1)S(C)(=O)=O (single isomer, unassigned; diastereomer 1) [listing 2 of 2 here]",–
–,–,102%,CC(C)N(CC(N1CCN(C(=O)[C@@H]2CN(C(C)(C)C)C[C@H]2c2ccc(F)cc2F)CC1)C(C)(C)C)S(C)(=O)=O (stereo in doubt; 27B) [listing 2 of 2 here],–
–,–,88%,CC(C)N(CC(C1CCCCC1)N1CCN(C(=O)[C@@H]2CN(C(C)(C)C)C[C@H]2c2ccc(F)cc2F)CC1)C(=O)c1ncccn1 (stereo in doubt; 22B) [listing 2 of 2 here],–
–,–,102%,"CC(C)N(CC(C1CCCCC1)N1CCN(C(=O)[C@@H]2CN(C(C)(C)C)C[C@H]2c2ccc(F)cc2F)CC1)C(=O)c1cccnn1 (single isomer, unassigned; diastereomer 1) [listing 2 of 2 here]",Activity (Melanocortin receptor 3 [10]): 108%; Activity (Melanocortin receptor 5 [11]): 68%; Activity [12]: 58%
